Results on eight molecules are retold here after article PMC9939733 (The Journal of Biological Chemistry, 2023).

Residue numbers refer to the chain shown, from its start. “And” between values parts separate entries of the source, which are not always exact repeats. Equal values may be shown once.

Holding throughout (format): biochemical
The target of assay [1] is T1, R140Q IDH2 (Homo sapiens, UniProt P48735, R140Q).
T1 construct: made in house; host or cells: Sf21 insect cells (cell pellets prepared at Evotec)
T1 sequence (P48735 40-452 R140Q): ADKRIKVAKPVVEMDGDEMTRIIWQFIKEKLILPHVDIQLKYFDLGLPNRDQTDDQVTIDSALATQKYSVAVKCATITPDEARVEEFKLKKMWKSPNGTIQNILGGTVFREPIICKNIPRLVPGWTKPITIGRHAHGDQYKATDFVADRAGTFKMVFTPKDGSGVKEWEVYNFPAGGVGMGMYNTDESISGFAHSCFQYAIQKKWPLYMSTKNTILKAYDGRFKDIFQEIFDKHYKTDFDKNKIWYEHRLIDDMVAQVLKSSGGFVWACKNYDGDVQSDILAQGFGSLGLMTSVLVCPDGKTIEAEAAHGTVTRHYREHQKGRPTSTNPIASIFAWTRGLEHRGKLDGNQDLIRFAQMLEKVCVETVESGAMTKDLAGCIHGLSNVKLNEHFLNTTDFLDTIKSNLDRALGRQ
Nature of the assay: Absorbance assay (NADPH consumption), substrate turnover in the absence of 2OG. As to the method:
(§1) Compounds were dispensed using a CyBio SDW-CW CyBi-Well Simultaneous Pipettor and assay started using a ThermoFisher Multidrop Combi reagent dispenser.
(§2) Reactions were performed as technical quadruplicates.

In assay [2] the target is T2, R172K IDH2 (Homo sapiens, UniProt P48735, R172K).
T2 construct: made in house; host or cells: Sf21 insect cells (cell pellets prepared at Evotec)
T2 sequence (P48735 40-452 R172K): T1 sequence (P48735 40-452 R140Q) with Q101R, R133K
Described as above. As to the method: as §1, §2

In assay [3] the target is T1, R140Q IDH2. The assay is described as follows: Absorbance assay, variant activity in the presence of equimolar 2OG (inhibition screen). An outline of the steps:
(§3)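 Values come from four technical replicates per reaction; compound transfer used a simultaneous pipettor and reagent dispensing triggered the start.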

The target of assay [4] is T2, R172K IDH2. The description is as above. Summed up: as §3
Assay [5] has as its target T3, WT IDH1 (Homo sapiens, UniProt O75874).
T3 construct: made in house; host or cells: Escherichia coli BL21(DE3) pLyS
Nature of the assay: Absorbance assay, WT activity in the presence of equimolar DL-isocitrate (inhibition). An outline of the steps: as §3

Assay [6] addresses T4, WT IDH2 (Homo sapiens, UniProt P48735).
T4 construct: made in house; host or cells: Sf21 insect cells (cell pellets prepared at Evotec)
T4 sequence (P48735 40-452): T1 sequence (P48735 40-452 R140Q) with Q101R
Described as above. An outline of the steps:
as §3

Assay [7] has as its target T3, WT IDH1. Nature of the assay: Absorbance assay, substrate activity in the absence of DL-isocitrate. The procedure:
as §1, §2

Assay [8] addresses T4, WT IDH2. The description is as above. The procedure: as §1, §2
Assay [9] has as its target T5, R132H IDH1 (Homo sapiens, UniProt O75874, R132H). The assay is described as follows: Absorbance assay (NADPH consumption), substrate turnover in the absence of 2OG. Further details: made in house; host or cells: Escherichia coli BL21(DE3) pLyS. The procedure:
as §1, §2

Assay [10] concerns the target T5, R132H IDH1. The assay is described as follows: Absorbance assay, variant activity in the presence of equimolar 2OG (inhibition screen). Further details: made in house; host or cells: Escherichia coli BL21(DE3) pLyS. Summed up: as §3
The mark [11] stands for this setting: no 2OG, 6.0 mM test compound, 0.03 μM R140Q IDH2, 50 μM NADPH, 2OG = 100.
Setting [12] is: no 2OG, 1.0 mM test compound, 0.03 μM R172K IDH2, 50 μM NADPH, 2OG = 100.
Setting [13] is: 6.0 mM 2OG and 6.0 mM test compound, 0.03 μM R140Q IDH2, 50 μM NADPH.
Where [14] appears, read: 1.0 mM 2OG and 1.0 mM test compound, 0.03 μM R172K IDH2, 50 μM NADPH.
Where [15] appears, read: […] isocitrate and […] test compound, 75 μM NADP+, 2.0 nM WT IDH1.
Where [16] appears, read: […] isocitrate and […] test compound, 75 μM NADP+, 2.0 nM WT IDH2.
[17] abbreviates: no DL-isocitrate, […] test compound, 75 μM NADP+, 2.0 nM WT IDH1, compared to DL-isocitrate.
The mark [18] stands for this setting: no DL-isocitrate, […] test compound, 75 μM NADP+, 2.0 nM WT IDH2, compared to DL-isocitrate.
The mark [19] stands for this setting: no 2OG, […] test compound, 0.03 μM R132H IDH1, 50 μM NADPH, 2OG = 100.
Where [20] appears, read: […] 2OG and […] test compound, 0.03 μM R132H IDH1, 50 μM NADPH.

T5 sequence (O75874 whole entry R132H): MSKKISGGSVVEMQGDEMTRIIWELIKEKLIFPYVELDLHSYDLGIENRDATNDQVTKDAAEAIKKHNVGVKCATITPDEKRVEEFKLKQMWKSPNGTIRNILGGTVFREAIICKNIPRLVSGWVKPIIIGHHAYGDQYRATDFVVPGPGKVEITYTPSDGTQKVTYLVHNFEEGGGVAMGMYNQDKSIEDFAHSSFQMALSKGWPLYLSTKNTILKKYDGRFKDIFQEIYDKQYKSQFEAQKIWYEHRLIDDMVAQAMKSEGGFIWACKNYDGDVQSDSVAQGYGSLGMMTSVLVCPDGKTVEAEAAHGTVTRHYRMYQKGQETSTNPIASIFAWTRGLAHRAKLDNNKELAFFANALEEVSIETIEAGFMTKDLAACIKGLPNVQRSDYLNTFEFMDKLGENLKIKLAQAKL
T3 sequence (O75874 whole entry): as the sequence (O75874 whole entry R132H) above, with H132R counted along it

On to `CC(CC(=O)O)C(=O)O` (racemic) [DL-2-methylsuccinic acid], for which the “activity [%] (%-substrate conversion after 20 min incubation)” value (“activity [%]” below) in assay [1] (setting [11]) is reported as under 10%; in [2] (setting [12]) it was under 10%; in assay [3] (setting [13]), 115 ± 12%; in [4] (setting [14]), 102 ± 9%; in [5] (setting [15]) it was 103 ± 2%; in assay [6] (setting [16]), 99 ± 3%. Moreover, the “activity [%]” value in assay [7] (setting [17]) is listed as under 10%; in assay [8] (setting [18]), under 10%; in assay [9] (setting [19]), under 10%; in [10] (setting [20]), 104 ± 3%.

Take `O=C(O)CC(Cc1ccccc1)C(=O)O` (racemic) [DL-benzylsuccinic acid]: the “activity [%]” value is recorded as under 10% in assay [1] (setting [11]); under 10% in assay [2] (setting [12]); 123 ± 5% in assay [3] (setting [13]); 98 ± 3% in assay [4] (setting [14]); 103 ± 4% in [5] (setting [15]); 101 ± 3% in [6] (setting [16]). The “activity [%]” value in assay [7] (setting [17]) was under 10%; in assay [8] (setting [18]), under 10%; in assay [9] (setting [19]), under 10%; in [10] (setting [20]) it was 93 ± 3%.

As for `O=C1CC(C(=O)O)C(C(=O)O)O1` (racemic) [DL-isocitric acid lactone], the “activity [%]” value is reported as under 10% in assay [1]; under 10% in assay [2]; 118 ± 18% in [3]; 95 ± 3% in assay [4]; 105 ± 2% in assay [5]; 106 ± 2% in assay [6]. In addition, the “activity [%]” value in assay [7] is ~10% and 12 ± 4%; in [8], ~10% and 11 ± 1%; in assay [9], under 10%; in assay [10] it was 99 ± 2%.

Consider `CC(O)C(=O)O` (racemic) [DL-lactic acid], for which the “activity [%]” value in [1] (setting [11]) is under 10%; in assay [2] (setting [12]), under 10%; in [3] (setting [13]), 115 ± 9%; in [4] (setting [14]), 100 ± 8%; in assay [5] (setting [15]), 105 ± 6%; in [6] (setting [16]) it was 95 ± 5%. Besides, the “activity [%]” value in [7] (setting [17]) is under 10%; in assay [8] (setting [18]), under 10%; in [9] (setting [19]), under 10%; in assay [10] (setting [20]), 104 ± 8%.

Turning to `CC(C(=O)O)C(C)C(=O)O` (stereo not shown) [1,2-dimethylsuccinic acid], the “activity [%]” value in assay [1] (setting [11]) is given as under 10%; in assay [2] (setting [12]) it was under 10%; in assay [3] (setting [13]) it was 110 ± 3%; in assay [4] (setting [14]), 99 ± 5%; in [5] (setting [15]), 103 ± 1%; in assay [6] (setting [16]), 99 ± 1%. Further, the “activity [%]” value in [7] (setting [17]) is under 10%; in assay [8] (setting [18]), under 10%; in assay [9] (setting [19]) it was under 10%; in assay [10] (setting [20]), 100 ± 2%.

Turning to `O=C(O)CC(S)C(=O)O` (stereo not shown) [2-mercaptosuccinic acid], the “activity [%]” value in assay [1] (setting [11]) was under 10%; in assay [2] (setting [12]), under 10%; in assay [3] (setting [13]), 91 ± 5%; in [4] (setting [14]), 99 ± 4%; in assay [5] (setting [15]) it was 109 ± 4%; in assay [6] (setting [16]), 100 ± 1%. The “activity [%]” value in assay [7] (setting [17]) is recorded as under 10%; in assay [8] (setting [18]), under 10%; in assay [9] (setting [19]), under 10%; in assay [10] (setting [20]) it was 104 ± 4%.

In the case of `C[C@@](O)(CC(=O)O)C(=O)O` [(R)-citramalic acid], the “activity [%]” value in [1] (setting [11]) is under 10%; in [2] (setting [12]), under 10%; in assay [3] (setting [13]) it was 110 ± 9%; in [4] (setting [14]), 100 ± 5%; in [5] (setting [15]), 101 ± 1%; in [6] (setting [16]), 99 ± 2%. For the same molecule, the “activity [%]” value in assay [7] (setting [17]) was under 10%; in [8] (setting [18]), under 10%; in assay [9] (setting [19]) it was under 10%; in assay [10] (setting [20]) it was 95 ± 2%.

Take `O=C(O)C(=O)C(=O)O` [ketomalonic acid]: the “activity [%]” value in [1] (setting [11]) is under 10%; in assay [2] (setting [12]) it was under 10%; in assay [4] (setting [14]) it was 85 ± 12%; in assay [5] (setting [15]), 102 ± 4%; in assay [6] (setting [16]) it was 100 ± 2%; in assay [7] (setting [17]), under 10%. Also, the “activity [%]” value in assay [8] (setting [18]) is under 10%; in assay [9] (setting [19]) it was under 10%; in assay [10] (setting [20]) it was 79 ± 1%.
